Measured values as given in patent US20100331424A1, “Use of Axomadol for Treatment of Arthrosis Pain” (Gruenenthal GmbH, priority 2007, published 2010).
Structures can show the parent of a compound that is named as a salt.

Assays:
[1] = test system: moderate to severe chronic pain as a result of osteoarthritis (OA) of the knee; test: Clinical Study B: axomadol vs oxycodone CR and placebo, 4 weeks, patients with OA of the knee; type: in vivo; conditions: for p of primary endpoint compared to the placebo group: per protocol set
Method: In this study, patients with OA of the knee were divided into 4 groups. Two of the patient groups received different doses of axomadol hydrochloride: 100 mg and 150 mg based on the free base, twice daily in each case after a titration period of 2 weeks, in which the dose of axomadol was increased on a weekly basis. […] A further group was given a placebo twice daily.

[2] = test system: moderate to severe chronic pain as a result of osteoarthritis (OA) of the hip or knee; test: Clinical Study A: axomadol vs tramadol and placebo, 4 weeks, patients with OA of the hip or knee; type: in vivo; conditions: for Decrease in pain intensity compared to baseline: full analysis set, day 29, axomadol 44, 66, 110 mg bid, tramadol 100 mg bid
Method: (§1) Two studies with a respective treatment period of 4 weeks were conducted to determine the efficacy and safety of axomadol in patients with moderate to severe chronic pain as a result of osteoarthritis (arthrosis, OA) of functional class I-III.
In this study, patients with OA of the hip or knee were divided into 5 groups.

[3] = test system: CFA-hyperalgesia (CFA-HA); test: Antihyperalgesic effect in the chronic inflammation pain model (Complete Freund's Adjuvant, electronic von Frey); type: in vivo, Sprague Dawley rats
Method: The test to determine the antihyperalgesic effect of axomadol in chronic inflammation pain was conducted on rats in the Complete Freund's Adjuvant animal model (CFA).
A model for chronic inflammation represents the monoarthritis triggered by the Complete Freund's Adjuvant (CFA). By injecting a small quantity of CFA (100 μg M. tuberculosis) into the back paw a local inflammatory reaction restricted in time to 2-4 weeks occurred.
Sprague Dawley rats from a commercial breeder (Janvier, Belgium) having a weight of 140-160 g were used as test animals. The CFA-HA was induced in rats by subplantar injection of CFA (100 μl of the 1 mg/ml mycobacteria (heat-killed M. tuberculosis)/oil suspension (IFA; Difco)) into the back paw (ipsilaterally). The injection day was defined as day 0 (d 0).
Hyperalgesia to a mechanical tactile stimulus was detected by means of an electronic von Frey measuring instrument (Somedic Electronic von Frey System, Somedic Sales AB, Horby, Sweden). The paw was stimulated by subplantar application. To quantify the sensitivity of both the ipsi- and the contralateral paw to the mechanical stimulus, the paw pull-away threshold was given in grams of applied pressure. The median was formed from the four measured values per paw. The pull-away threshold of the ipsi- and contralateral paw was determined on day 1 after CFA injection before (=initial value) and at different times (15, 20 and 60 minutes) after substance dose (measured value). The efficacy of a substance was calculated as % inhibition of hyperalgesia as follows:
% inhibition of HA=(1−HA measured value/HA initial value)×100
HA initial value=pull away threshold contralateral−pull away threshold ipsilateral before substance dose
HA measured value=pull away threshold contralateral−pull away threshold ipsilateral after substance dose
In total, 10 rats were used in each test animal group. The mean±SEM was calculated from the medians of the individual animals. The significance calculation was conducted using the two-factor analysis of the variance (ANOVA) for repeated measurements. In the case of a significant treatment effect, a comparison in pairs was conducted at different measurement times by a Fisher's significance test, followed by a post hoc Dunnett test. The results were assessed as statistically significant at p<0.05.
In order to determine the maximum efficacy, the substance was administered intravenously (IV) up to the maximum possible dose.

[4] = test system: moderate to severe chronic pain as a result of osteoarthritis (arthrosis, OA) of functional class I-III; test: Both clinical studies (A and B), statements made for both; type: in vivo, patients; conditions: after 4 weeks
Method: as §1

## COc1cccc([C@@]2(O)C[C@H](O)CC[C@@H]2CN(C)C)c1 (racemic) [Axomadol, (1RS,3RS,6RS)-6-dimethylaminomethyl-1-(3-methoxyphenyl)-cyclohexane-1,3-diol]
[1]; 100 mg group
  Frequency of undesirable side-effects which caused patients to discontinue the study: 16.3%
[1]; 150 mg group
  Frequency of undesirable side-effects which caused patients to discontinue the study: 17.7%
[1]; axomadol groups 100 mg and 150 mg twice daily
  Severity of undesirable effects: slight to moderate
[1]; full analysis set, 100 mg twice daily
  p of average pain intensity of the last 24 hours on day 29 compared to the placebo: 0.0190
[1]; 100 mg twice daily group
  p of primary endpoint compared to the placebo group: 0.0068
[1]; 150 mg twice daily group
  p of primary endpoint compared to the placebo group: 0.0079
[2]
  Decrease in pain intensity compared to baseline: clinically relevant decrease in pain intensity
[2]; per protocol set, 110 mg twice daily
  p of decrease in pain intensity compared to the placebo group: < 0.05
[2]; per protocol set, axomadol 44, 66, 110 mg twice daily
  Decrease in pain intensity, dose dependence: higher efficacy at the higher dose
[3]; chronic inflammation pain model
  Analgesic efficacy compared to morphine, oxycodone and tramadol (in words): better analgesic efficacy
[3]; rat
  Effect on CFA-induced hyperalgesia (in words): significantly reduces
[4]
  Decrease in pain intensity: clinically significant decrease in pain intensity

## COc1cccc([C@@]2(O)C[C@H](O)CC[C@@H]2CN(C)C)c1 (racemic) [Axomadol-HCl, (1RS,3RS,6RS)-6-dimethylaminomethyl-1-(3-methoxyphenyl)-cyclohexane-1,3-diol]
[2]; 110 mg twice daily
  Instance of the most frequent undesirable effects vs every other treatment group: higher
[3]; rat, IV
  Dose from which overlap with antinociceptive effect (comparators: also side-effects that impair measurement): From 14.7 mg/kg: overlap with antinociceptive
[3]; rat, IV, dose 2.15 mg/kg
  % Inhibition of HA: 16%
[3]; rat, IV, dose 10.0 mg/kg
  % Inhibition of HA: 40%
[3]; rat, IV, dose 14.7 mg/kg
  % Inhibition of HA: 9%
[3]; rat, IV, doses higher than 10 mg/kg
  Antihyperalgesic effect at higher doses: 9%

## CN1CC[C@]23c4c5ccc(O)c4O[C@H]2[C@@H](O)C=C[C@H]3[C@H]1C5 [Morphine]
[3]; rat, IV
  Dose from which overlap with antinociceptive effect (comparators: also side-effects that impair measurement): From 4.64 mg/kg: overlap with antinociceptive
[3]; rat, IV, dose 0.46 mg/kg
  % Inhibition of HA: 8%
[3]; rat, IV, dose 1.00 mg/kg
  % Inhibition of HA: 20%
[3]; rat, IV, dose 2.15 mg/kg
  % Inhibition of HA: 27%

## COc1ccc2c3c1O[C@H]1C(=O)CC[C@@]4(O)[C@@H](C2)N(C)CC[C@]314 [Oxycodone]
[1]; oxycodone CR 20 mg twice daily group
  p of primary endpoint compared to the placebo group: 0.0154
[3]; rat, IV
  Dose from which overlap with antinociceptive effect (comparators: also side-effects that impair measurement): From 0.681 mg/kg: overlap with antinociceptive
[3]; rat, IV, dose 0.215 mg/kg
  % Inhibition of HA: 18%
[3]; rat, IV, dose 0.681 mg/kg
  % Inhibition of HA: 26%

## COc1cccc(C2(O)CCCCC2CN(C)C)c1 (stereo not shown) [Tramadol, reference compound]
[2]
  Decrease in pain intensity compared to baseline: not observed
[3]; rat, IV
  Dose from which overlap with antinociceptive effect (comparators: also side-effects that impair measurement): From 4.64 mg/kg: overlap with antinociceptive
